Values quoted from earlier work, collected in patent US20050154020A1, “4-Aryl piperidines” (Synaptic Pharmaceutical Corporation, priority 2004, published 2005).

Assays:
MCH1 [1] = molecular target: T1, MCH1 (Rattus norvegicus, UniProt P97639)
T1 construct: from tissue; host or cells: whole living rat (in vivo behavioural model)

MCH1 [2] = molecular target: T1, MCH1; remark: listed apart in the source
MCH1 [3] = molecular target: T2, MCH1 (Cavia porcellus, UniProt H0VKT7)
T2 construct: from tissue; host or cells: whole living guinea pig (in vivo behavioural model)
T2 sequence (H0VKT7 1-355): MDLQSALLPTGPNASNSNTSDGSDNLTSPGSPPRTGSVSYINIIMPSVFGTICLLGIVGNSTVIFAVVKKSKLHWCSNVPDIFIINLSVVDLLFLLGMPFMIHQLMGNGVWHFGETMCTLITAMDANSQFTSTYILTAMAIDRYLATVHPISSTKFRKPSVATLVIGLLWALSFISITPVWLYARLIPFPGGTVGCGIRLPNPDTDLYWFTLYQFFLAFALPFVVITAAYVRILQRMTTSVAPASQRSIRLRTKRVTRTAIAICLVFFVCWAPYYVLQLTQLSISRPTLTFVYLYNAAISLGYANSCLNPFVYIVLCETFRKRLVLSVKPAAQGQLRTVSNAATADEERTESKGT

T1 sequence (P97639 whole entry): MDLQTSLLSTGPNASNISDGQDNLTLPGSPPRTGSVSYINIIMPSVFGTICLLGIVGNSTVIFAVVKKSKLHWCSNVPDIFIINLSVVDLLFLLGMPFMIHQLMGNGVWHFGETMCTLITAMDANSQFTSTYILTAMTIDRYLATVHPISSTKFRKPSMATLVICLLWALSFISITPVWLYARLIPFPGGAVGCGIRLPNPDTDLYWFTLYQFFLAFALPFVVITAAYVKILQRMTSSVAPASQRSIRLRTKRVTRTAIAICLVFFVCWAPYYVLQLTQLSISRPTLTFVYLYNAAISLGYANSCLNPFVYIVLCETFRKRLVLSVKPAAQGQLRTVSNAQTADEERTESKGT

COCC1=C(C(=O)OC)[C@H](c2ccc(F)c(F)c2)N(C(=O)NCCCN2CCC(c3cccc(NC(C)=O)c3)CC2)C(=O)N1 [SNAP-7941]
effect in rat forced-swim test (model of depression/anxiety) (MCH1 [1]): effects similar to clinically used antidepressants and anxiolytics
effect in rat social interaction test (model of depression/anxiety) (MCH1 [2]): effects similar to clinically used antidepressants and anxiolytics
effect in guinea pig maternal-separation vocalization test (model of depression/anxiety) (MCH1 [3]): effects similar to clinically used antidepressants and anxiolytics
